According to patent US11707636B2, “Methods and devices for modulating cellular activity using ultrasound” (priority 2008, dated 2023):
“Also recorded” adds a separate entry of the source.

Key:
motor cortex [1] = test system: motor cortex; parameters: species or system mice; conditions: mouse, in vivo
[2] = test system: synaptic vesicle exocytosis in hippocampal slice cultures; assay type: cell-based, mice
motor cortex [3] = test system: motor cortex; parameters: species or system mice; conditions: mouse, in vivo; remark: listed apart in the source
[4] = test system: Ca^2+ transients (OGB-1 signals) in neurons; assay type: cell-based, mice
[5] = test system: Na^+ transients in CA1 pyramidal neurons; assay type: cell-based, mice

NC1=N[C@H](O)[C@H]2[C@H]3O[C@]4(O)O[C@@H]([C@@H](O)[C@@]2(N1)[C@@H]4O)[C@]3(O)CO [TTX, tetrodotoxin]
US-evoked EMG activity / descending corticospinal circuit activity (motor cortex [1]): blocks | exocytosis (spH response) in response to low intensity ultrasound waveforms [2]: nearly abolishes; also recorded: nearly abolishing | US-evoked cortical activity (motor cortex [3]): blocked | average presynaptic temporal response of OGB-1 to USW-1 [4]: nearly abolishing | Na^+ transient response (ΔF/F0 CoroNa Green) to USW-1 [5]: blocked
